The subject of assay [1] is 4T1.2 cells. The assay can be described thus: Mitochondrial membrane potential (JC-1). Type of assay: cell-based, mouse. As to the method:
FIGS. 4A-4D. Excessive Ca^2+/CaMKII signaling and MPTP contribute to cell death. FIG. 4A: Kinetics of cytosolic Ca^2+ increase in 4T1.2 cells treated with Ivermectin. […] 4T1.2 cells were treated for 4 h with 32 μM Ivermectin in the presence of the P2X7/CaMKII dual inhibitor KN-62 or the CaMKII-specific inhibitor KN-63, at μM concentrations as indicated. FIG. 4C: Flow cytometry analysis of JC-1 loaded 4T1.2 cells showing that high doses of Ivermectin result in a sudden mitochondrial de-polarization, while lower doses cause similar effects but after transient hyper-polarization. FIG. 4D: MPTP contributes to Ivermectin. 4T1.2 cells were treated for 4 h with 32 μM Ivermectin in the presence of the MPTP inhibitor Cyclosporin A at μM concentrations as indicated. Asterisk (*) indicates p<0.05 relative to untreated or Ivermectin alone controls, respectively.
Mitochondrial membrane potential. Cancer cells in suspension were washed with PBS and loaded with 2 μM JC-1 (Life Technologies, T3168) for 15 min at room temperature in the dark. Cells were washed twice with PBS and treated with various doses of Ivermectin in R10 medium. Cells were incubated for 1 h/4 h in 5 ml FACS tubes at 37° C. and 5% CO2. After 1h/4h of treatment cells were analyzed by flow cytometry. Mitochondrial polarization was evaluated by measuring the corresponding changes in fluorescence in the FITC and PE channels. […]

For assay [2], the system named is murine and human TNBC cells. Nature of the assay: HMGB1 and LDH Release. Type of assay: cell-based, mouse. As to the method:
FIGS. 6A-6E. Ivermectin induces autophagy. FIG. 6A: Ivermectin induces autophagy in breast cancer cells. MDA-MB-231 GFL-LC3 cells were treated with different doses of Ivermectin for 24 h and formation of green fluorescent puncta was evaluated by confocal fluorescence microscopy. FIG. 6B: Western blot confirming the induction of autophagy in both murine and human breast cancer cells, as evidenced by LC3 lipidation and autophagic degradation of p62(SQSTM1). […] MDA-MB-231 cells (triplicates) were treated with different doses of Ivermectin for up to 24h and surface stained with antibody-specific for the human M6P receptor versus isotype control. Similarly, 4T1.2 and MB231 cells were treated with different doses of Ivermectin for 4-24 h, and were stained with an antibody specific for both human and mouse CRT versus isotype control. Mean fluorescent intensity (MFI) values and ratios versus isotype control were calculated after gating on live/membrane-intact cells. FIG. 6D: Ivermectin (32 μM) induces release of HMGB1 from murine and human TNBC cells (triplicates). […] Asterisk (*) indicates p<0.05 relative to untreated or Ivermectin alone controls, respectively.
HMGB1 and LDH Release. HMGB1 and LDH release were evaluated using an HMGB1 detection kit (IBL International, ST51011) and the CYTOTOX96® Non Radioactive Cytotoxicity Assay (Promega, G1780),following manufacturers' instructions.

Assay [3] deals with Caspase-1, Caspase-3 and PARP in 4T1.2 and MDA-MB-231 cells. The assay can be described thus: Caspase activation and PARP cleavage. Type of assay: cell-based, mouse, human. As to conditions: 32 μM, 4 h. The protocol:
FIGS. 1A-1H. Ivermectin kills breast cancer cells through a mixed apoptotic and necrotic mechanism. FIG. 1A: Mouse (4T1.2) and human (MDA-MB-231) TNBC cells manifest similar sensitivity to Ivermectin. Viability of cells treated with various doses of Ivermectin for 24 h. FIG. 1B: Extended exposure time reduces IC50 values to as low as 2 μM. 4T1.2 cells were seeded at 100 cells/well and individual colonies were counted after a week. Cancer cells were exposed to Ivermectin during the initial 24 h or during the entire duration of the assay. FIG. 1C: MDA-MB-231 breast cancer cells manifest higher sensitivity to Ivermectin compared to normal non-transformed human foreskin fibroblasts (HFFs). FIG. 1D: Flow cytometry analysis showing that cell death proceeds through two distinct pathways: a directly necrotic 7AAD-single positive or Annexin V/PS-single positive apoptotic pathway. FIG. 1E: Kinetics of necrotic versus apoptotic killing of 4T1.2 breast cancer cells. FIG. 1F: Ivermectin-induced cell death can be reversed by inhibition of various controlled cell death pathways. 4T1.2 cells were treated for 4 h with 32 μM Ivermectin in the presence of μM concentrations of Z-vad-fmk, Necrostatin-1, Digoxin, or VX-765, as indicated. […]
Caspase activation and PARP cleavage. […] PARP cleavage was analyzed after fixing the cells (eBioscience, Cat #00-5123 and Cat #00-5223) for 30 min at RT. […]

The test system of assay [4] is 4T1.2 cells. The assay can be described thus: Cell viability (acid phosphatase assay) of cancer cells treated with Ivermectin. Type of assay: cell-based, mouse. The settings on record: mouse and human breast cancer cells. As to the method:
Cell viability. Cancer cells were plated on 96 well flat-bottom plates and allowed to attach overnight. Cells were then pre-incubated with drugs for 1 h and treated with Ivermectin for 4 h. In the case of 24 h and 48 h incubations the cells, Ivermectin and drugs were plated together. All treatments and controls were done in triplicate wells and results were validated in at least two independent experiments. Following treatment the plates were washed once with PBS and cell viability was measured using the acid phosphatase assay. Briefly, cells were incubated for 1h at 37° C. in 100 μL assay buffer (0.16 M sodium acetate, 0.1% Triton-X-100, supplemented with 4-Nitrophenyl phosphate disodium salt hexahydrate, Sigma Aldrich, at 0.00263 g/ml). Reaction was stopped using 10 μL of 1N sodium hydroxide. Absorption at 405 nm was measured within 10 min using a multi-well plate reader. Mode of cell death and viability of cells in suspension was evaluated using flow cytometry. Briefly, cancer cells were pre-incubated with drugs for 30 min to 1 h, as indicated, treated with Ivermectin for 4 h in 5 ml FACS tubes , washed twice in PBS and stained with PE-conjugated Annexin V and 7AAD (1 μl per 100 μl/200,000 cancer cells) for 15 min.

The structures appear in SMILES notation.

Take `CC[C@H](C)[C@H]1O[C@]2(CC[C@@H]1C)C[C@@H]1C[C@@H](C/C=C(\C)[C@@H](O[C@H]3C[C@H](OC)[C@@H](O[C@H]4C[C@H](OC)[C@@H](O)[C@H](C)O4)[C@H](C)O3)[C@@H](C)/C=C/C=C3\CO[C@@H]4[C@H](O)C(C)=C[C@@H](C(=O)O1)[C@]34O)O2` [Ivermectin]: the mitochondrial polarization result in the assay on 4T1.2 cells [1] (high doses of Ivermectin, massive cell death) was “sudden depolarization of mitochondria”. The mitochondrial polarization entry in the assay on 4T1.2 cells [1] (lower doses of Ivermectin) is recorded as “mitochondrial hyperpolarization”. The HMGB1 release entry in assay [2] (32 μM) was “potent inducer of HMGB1 release”. In addition, the LDH release result in assay [2] (normalized to maximum release (lysis)) is recorded as “induces release of cytosolic LDH”. In addition, in assay [3], the PARP cleavage entry is listed as “rapid cleavage of PARP”; the caspase activation result is “potent caspase-1 and caspase-3 activation”. In the assay on 4T1.2 cells [4], the “Ivermectin doses giving rapid killing” value is at least 8 µM.

The values are drawn from patent US11058700B2, “Macrocyclic lactones and uses thereof as modulators of purinergic receptors” (City of Hope, priority 2015, dated 2021).
